PubChem BioAssay (NCI)
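The compound was tested at five concentrations on cells cultured in 96-well plates, with a 48-hour exposure period. GI50 = concentration required for 50% inhibition of growth. TGI: total growth inhibition.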

How the values were obtained:
Assay in all cases: growth of human tumour cells (NCI), 48 h
A498 renal = system: A498 renal
HCC-2998 colon = system: HCC-2998 colon
HCT-116 colon = system: HCT-116 colon
MALME-3M melanoma = system: MALME-3M melanoma
OVCAR-3 ovarian = system: OVCAR-3 ovarian
SF-268 CNS = system: SF-268 CNS
SW-620 colon = system: SW-620 colon
TK-10 renal = system: TK-10 renal
U251 CNS = system: U251 CNS
DU-145 prostate = system: DU-145 prostate

Row | Structure (SMILES) | TGI (A498 renal) [µM] | TGI (HCC-2998 colon) [µM] | TGI (HCT-116 colon) [µM] | TGI (MALME-3M melanoma) [µM] | TGI (OVCAR-3 ovarian) [µM] | TGI (SF-268 CNS) [µM] | TGI (SW-620 colon) [µM] | TGI (TK-10 renal) [µM] | TGI (U251 CNS) [µM] | GI50 (A498 renal) [µM] | GI50 (DU-145 prostate) [µM] | TGI (DU-145 prostate) [µM] | GI50 (HCC-2998 colon) [µM] | GI50 (HCT-116 colon) [µM] | GI50 (OVCAR-3 ovarian) [µM] | GI50 (TK-10 renal) [µM] | GI50 (U251 CNS) [µM] | GI50 (SF-268 CNS) [µM] | GI50 (SW-620 colon) [µM] | GI50 (MALME-3M melanoma) [µM]
1 | CN(C)CC1(C)CC/C(=C\c2ccccc2)C1=O (centres undefined) | > 100 | > 100 | > 100 | > 100 | > 100 | > 100 | > 100 | > 100 | > 100 |  |  |  |  |  |  |  |  |  |  | 
2 | Nc1ccc(/C=N/Nc2ccnc3c(N)cccc23)c2cccnc12 | 3.3 | 3.3 | 1.85 |  | 3.16 |  |  | 3.56 | 3.09 | 1.79 | 1.68 | 3.13 | 1.81 | 0.401 | 1.63 | 1.96 | 1.61 |  |  | 
3 | N#CCCN(c1ccc(-c2nnc(NC(=O)CNNC(=O)CC(=O)Nc3ccccc3)s2)cc1)S(=O)(=O)c1ccccc1 | > 100 | > 100 | > 100 | > 100 | > 100 | > 100 | > 100 | > 100 | > 100 |  |  |  |  |  |  |  |  |  |  | 
4 | COc1ccc2c(c1)CC[C@@H]1[C@@H]2CC[C@]2(C)C(c3ccco3)=C(C=O)C[C@@H]12 | 64.8 | 26.3 | 12.8 |  | 12.4 | > 100 | > 100 | 21.2 | 18.1 | 26.1 | 7.82 | 27 | 6.78 | 2.95 | 2.08 | 4.93 | 4.13 | 13.6 | 6.26 | 
5 | Cc1cc(Cl)ccc1N=C1NC(=O)C(CC(=O)Nc2ccc(Cl)cc2Cl)S1 (centres undefined) |  | > 100 |  | > 100 | > 100 | > 100 | > 100 | > 100 | > 100 |  |  |  |  |  |  |  |  |  |  | 
6 | COc1cc2nc(Nc3cccc(F)c3)nc(Nc3cc(C)[nH]n3)c2cc1OC |  | 3.28 |  | 3.55 | 3.41 | 3.46 | 3.75 | 3.68 | 3.73 |  | 1.64 | 3 | 1.8 |  | 1.82 | 1.82 | 1.82 | 1.82 | 1.84 | 1.86
7 | CN(C)CCNC(=O)c1cccc2[nH]c(-c3ccccc3)nc12 | 26.7 | 29.1 | 27.5 |  | 50.3 | 46.3 | 45.8 | 59.9 | 65.1 |  |  |  |  |  |  |  |  |  |  | 
8 | CC12CCC[C@@](C)(C(=O)OC3OC(CO)C(O)C(O)C3O)[C@H]1CCC13CC4CC(OC4(CO)[C@H]1O)[C@@H]23 (some centres undefined) | > 100 | > 100 | > 100 | > 100 | > 100 | > 100 | 31 | > 100 | > 100 |  |  |  |  |  |  |  |  |  |  | 
9 | Cc1ccccc1CN1CC=c2ccccc2=N1 | > 100 | > 100 |  | > 100 | > 100 | > 100 | > 100 | > 100 | > 100 |  |  |  |  |  |  |  |  |  |  | 
10 | CCC(C)C(NC(=O)C1CCCN1C(=O)C(NC(=O)C(C)N)C(C)C)C(N)=O (centres undefined) | > 100 |  | > 100 | > 100 | > 100 | > 100 | > 100 | > 100 | > 100 | > 100 | > 100 | > 100 |  | > 100 | > 100 | > 100 | > 100 | > 100 | > 100 | 52.3
11 | COc1ccc(C2=NN(C(C)=O)C(c3cn(-c4ccccc4)nc3-c3ccc(Cl)cc3)C2)cc1 (centres undefined) | > 100 | > 100 | > 100 |  | > 100 | > 100 | > 100 |  | > 100 | 99.5 | > 100 | > 100 | > 100 | > 100 | > 100 |  | 7.44 | 6.2 |  | 
12 | COc1ccc([N+](=O)[O-])c(S(=O)(=O)c2ccc(Cl)cc2)n1 |  | 23.8 | 9.33 | 4.08 | 5.31 | 17.8 | 4.65 | 11.7 | 21.6 |  | 9.63 | 21.3 | 8.38 | 2.9 | 2.34 | 3.57 | 8.69 | 4.57 | 2.06 | 2
13 | O=C(NO)C12C3C4C1C1C2C3C41C(=O)NO (centres undefined) | > 100 | > 100 | > 100 | > 100 | > 100 | > 100 |  | > 100 | > 100 |  |  |  |  |  |  |  |  |  |  | 
14 | OCC12C3C4C1C1C2C3C41CO (centres undefined) | > 100 | > 100 |  | > 100 | > 100 | > 100 | > 100 | > 100 | > 100 |  |  |  |  |  |  |  |  |  |  | 
15 | Nc1nc2nc[nH]c2c(=O)[nH]1 | > 100 |  | > 100 | > 100 | > 100 | > 100 | > 100 | > 100 | > 100 |  |  |  |  |  |  |  |  |  |  | 
16 | COC(=O)C1=C(CO)C2C=CC1C2 (centres undefined) | > 100 | > 100 | > 100 | > 100 | > 100 | > 100 | > 100 | > 100 | > 100 |  |  |  |  |  |  |  |  |  |  | 
17 | COc1cc(C(=O)c2cc3c(cc2C)OCO3)cc(OC)c1OC | 0.199 | > 100 | > 100 |  |  | > 100 | > 100 | > 100 | > 100 | 0.0322 |  |  | 0.218 | 0.0682 | 0.0765 | 34.2 | 0.158 | 0.36 | 0.0608 | 
18 | CC(C)=CC(=O)Cc1nc2cc(C)c(C)cc2[nH]c1=O | > 100 | > 100 | > 100 | > 100 | > 100 | > 100 | > 100 | > 100 | > 100 |  |  |  |  |  |  |  |  |  |  | 
19 | O=C(/C=C\c1ccc(Cl)cc1Cl)c1cccs1 | 39 |  | 23.5 | 42.9 | 89.7 | 53.3 | 28.8 | 78.9 |  |  |  | 44.9 |  |  |  |  |  |  |  | 
